Data: ChEMBL document CHEMBL3616471, “Synthesis and in vitro antitumor evaluation of betulin acid ester derivatives as novel apoptosis inducers” (Eur J Med Chem, 2015)
Activity calls are given as the source filed them. No cut-off for these calls is given here.

Columns and labels:
MGC-803 [1] = assay: Cytotoxicity against human MGC803 cells after 72 hrs by MTT assay; format: functional, cell-based; details: MGC-803, 72 h
PC-3 [2] = assay: Cytotoxicity against human PC3 cells after 72 hrs by MTT assay; format: functional, cell-based; details: PC-3, 72 h
Bcap37 [3] = assay: Cytotoxicity against human Bcap37 cells after 72 hrs by MTT assay; format: functional, cell-based; details: Bcap37, 72 h
A-375 [4] = assay: Cytotoxicity against human A375 cells after 72 hrs by MTT assay; format: functional, cell-based; details: A-375, 72 h
MCF7 [5] = assay: Cytotoxicity against human MCF7 cells after 72 hrs by MTT assay; format: functional, cell-based; details: MCF7, 72 h
[6] = Cytotoxicity against mouse NIH/3T3 cells after 72 hrs by MTT assay; format: cell-based; details: nih3t3, 72 h
MGC-803 [7] = assay: Selectivity index, ratio of IC50 for mouse NIH/3T3 cells to IC50 for human MGC803 cells; format: functional
PC-3 [8] = assay: Selectivity index, ratio of IC50 for mouse NIH/3T3 cells to IC50 for human PC3 cells; format: functional
Bcap37 [9] = assay: Selectivity index, ratio of IC50 for mouse NIH/3T3 cells to IC50 for human Bcap37 cells; format: functional
A-375 [10] = assay: Selectivity index, ratio of IC50 for mouse NIH/3T3 cells to IC50 for human A375 cells; format: functional
MCF7 [11] = assay: Selectivity index, ratio of IC50 for mouse NIH/3T3 cells to IC50 for human MCF7 cells; format: functional
MGC-803 [12] = assay: Induction of apoptosis in human MGC803 cells assessed as compact and condensed chromatin at 10 uM after 48 hrs using Hoechst 33258 staining by fluorescence microscopic analysis; format: functional, cell-based
MGC-803 [13] = assay: Induction of apoptosis in human MGC803 cells assessed as formation of nicks in DNA at 10 uM after 48 hrs by TUNNEL assay; format: functional, cell-based

Row | SMILES | IC50 (MGC-803 [1]) [µM] | IC50 (PC-3 [2]) [µM] | IC50 (Bcap37 [3]) [µM] | IC50 (A-375 [4]) [µM] | IC50 (MCF7 [5]) [µM] | Activity [6] | Ratio IC50 (MGC-803 [7]) | Ratio IC50 (PC-3 [8]) | Ratio IC50 (Bcap37 [9]) | Ratio IC50 (A-375 [10]) | Ratio IC50 (MCF7 [11]) | Activity (MGC-803 [12]) | Activity (MGC-803 [13])
1 | C=C(C)[C@@H]1CC[C@]2(COC(=O)c3ccccc3C)CC[C@]3(C)[C@H](CC[C@@H]4[C@@]5(C)CC[C@H](O)C(C)(C)[C@@H]5CC[C@]43C)[C@@H]12 | > 100 | > 100 | > 100 | > 100 | > 100 |  |  |  |  |  |  |  | 
2 | C=C(C)[C@@H]1CC[C@]2(COC(=O)CCC(=O)N3CCOCC3)CC[C@]3(C)[C@H](CC[C@@H]4[C@@]5(C)CC[C@H](O)C(C)(C)[C@@H]5CC[C@]43C)[C@@H]12 | 9.2 | 11.2 | 6.4 | 18.5 | 11.5 | Non-toxic | 6.23 | 5.12 | 8.97 | 3.1 | 4.99 |  | 
3 | C=C(C)[C@@H]1CC[C@]2(COC(=O)c3ccccc3C(F)(F)F)CC[C@]3(C)[C@H](CC[C@@H]4[C@@]5(C)CC[C@H](OC(=O)c6ccccc6C(F)(F)F)C(C)(C)[C@@H]5CC[C@]43C)[C@@H]12 | > 100 | > 100 | > 100 | > 100 | > 100 |  |  |  |  |  |  |  | 
4 | C=C(C)[C@@H]1CC[C@]2(COC(=O)/C=C/C(=O)O)CC[C@]3(C)[C@H](CC[C@@H]4[C@@]5(C)CC[C@H](O)C(C)(C)[C@@H]5CC[C@]43C)[C@@H]12 | 21.3 | 25.8 | 18.3 | 23.2 | 17.1 | Toxic | >3 | >3 | >3 | >3 | >3 |  | 
5 | C=C(C)[C@@H]1CC[C@]2(COC(=O)CCC(=O)O)CC[C@]3(C)[C@H](CC[C@@H]4[C@@]5(C)CC[C@H](O)C(C)(C)[C@@H]5CC[C@]43C)[C@@H]12 | 11.3 | 12.5 | 15.7 | 17.9 | 14.5 | Non-toxic | 6.45 | 5.83 | 4.64 | 4.07 | 5.02 |  | 
6 | C=C(C)[C@@H]1CC[C@]2(COC(=O)c3ccccc3)CC[C@]3(C)[C@H](CC[C@@H]4[C@@]5(C)CC[C@H](OC(=O)c6ccccc6)C(C)(C)[C@@H]5CC[C@]43C)[C@@H]12 | > 100 | > 100 | > 100 | > 100 | > 100 |  |  |  |  |  |  |  | 
7 | C=C(C)[C@@H]1CC[C@]2(COC(=O)/C=C/c3ccccc3)CC[C@]3(C)[C@H](CC[C@@H]4[C@@]5(C)CC[C@H](O)C(C)(C)[C@@H]5CC[C@]43C)[C@@H]12 | > 100 | > 100 | > 100 | > 100 | > 100 |  |  |  |  |  |  |  | 
8 | C=C(C)[C@@H]1CC[C@]2(COC(=O)c3ccccc3)CC[C@]3(C)[C@H](CC[C@@H]4[C@@]5(C)CC[C@H](O)C(C)(C)[C@@H]5CC[C@]43C)[C@@H]12 | > 100 | > 100 | > 100 | > 100 | > 100 |  |  |  |  |  |  |  | 
9 | C=C(C)[C@@H]1CC[C@]2(COC(=O)CCC(=O)N3CCCC3)CC[C@]3(C)[C@H](CC[C@@H]4[C@@]5(C)CC[C@H](O)C(C)(C)[C@@H]5CC[C@]43C)[C@@H]12 | 8.9 | 8.3 | 7.9 | 12.6 | 10.1 | Non-toxic | 4.97 | 5.33 | 5.6 | 3.52 | 4.38 |  | 
10 | CC[C@@]1(O)C(=O)OCc2c1cc1n(c2=O)Cc2cc3cc(O)ccc3nc2-1 |  |  |  |  |  |  |  |  |  |  |  | Active | Active
11 | C=C(C)[C@@H]1CC[C@]2(COC(=O)/C=C/C(=O)N3CCCCC3)CC[C@]3(C)[C@H](CC[C@@H]4[C@@]5(C)CC[C@H](O)C(C)(C)[C@@H]5CC[C@]43C)[C@@H]12 | 5.3 | 9.6 | 7.4 | 14.4 | 6.3 | Toxic | >3 | >3 | >3 | >3 | >3 |  | 
12 | C=C(C)[C@@H]1CC[C@]2(COC(=O)c3ccccc3C(F)(F)F)CC[C@]3(C)[C@H](CC[C@@H]4[C@@]5(C)CC[C@H](O)C(C)(C)[C@@H]5CC[C@]43C)[C@@H]12 | > 100 | > 100 | > 100 | > 100 | > 100 |  |  |  |  |  |  |  | 
13 | C=C(C)[C@@H]1CC[C@]2(COC(=O)c3ccccc3Cl)CC[C@]3(C)[C@H](CC[C@@H]4[C@@]5(C)CC[C@H](OC(=O)c6ccccc6Cl)C(C)(C)[C@@H]5CC[C@]43C)[C@@H]12 | > 100 | > 100 | > 100 | > 100 | > 100 |  |  |  |  |  |  |  | 
14 | C=C(C)[C@@H]1CC[C@]2(COC(=O)c3cccc([N+](=O)[O-])c3)CC[C@]3(C)[C@H](CC[C@@H]4[C@@]5(C)CC[C@H](OC(=O)c6cccc([N+](=O)[O-])c6)C(C)(C)[C@@H]5CC[C@]43C)[C@@H]12 | > 100 | > 100 | > 100 | > 100 | > 100 |  |  |  |  |  |  |  | 
15 | C=C(C)[C@@H]1CC[C@]2(COC(=O)c3ccc(F)cc3)CC[C@]3(C)[C@H](CC[C@@H]4[C@@]5(C)CC[C@H](O)C(C)(C)[C@@H]5CC[C@]43C)[C@@H]12 | > 100 | > 100 | > 100 | > 100 | > 100 |  |  |  |  |  |  |  | 
16 | C=C(C)[C@@H]1CC[C@]2(COC(=O)CCC(=O)N(CC)CC)CC[C@]3(C)[C@H](CC[C@@H]4[C@@]5(C)CC[C@H](O)C(C)(C)[C@@H]5CC[C@]43C)[C@@H]12 | 8.5 | 9.6 | 6.7 | 10.3 | 9.2 | Non-toxic | 7.29 | 6.45 | 9.25 | 6.01 | 6.73 |  | 
17 | C=C(C)[C@@H]1CC[C@]2(CO)CC[C@]3(C)[C@H](CC[C@@H]4[C@@]5(C)CC[C@H](O)C(C)(C)[C@@H]5CC[C@]43C)[C@@H]12 [BETULIN] | 30.2 | 22.4 | 25.5 | 28 | 19.3 |  |  |  |  |  |  |  | 
18 | C=C(C)[C@@H]1CC[C@]2(COC(=O)c3cccc(Cl)c3)CC[C@]3(C)[C@H](CC[C@@H]4[C@@]5(C)CC[C@H](O)C(C)(C)[C@@H]5CC[C@]43C)[C@@H]12 | > 100 | > 100 | > 100 | > 100 | > 100 |  |  |  |  |  |  |  | 
19 | C=C(C)[C@@H]1CC[C@]2(COC(=O)Cc3ccc(Cl)cc3)CC[C@]3(C)[C@H](CC[C@@H]4[C@@]5(C)CC[C@H](O)C(C)(C)[C@@H]5CC[C@]43C)[C@@H]12 | > 100 | > 100 | > 100 | > 100 | > 100 |  |  |  |  |  |  |  | 
